Read-outs that look alike come from different tables or passages of the source.
Assay: Non-compartmental plasma pharmacokinetics of galunisertib in patients (LC-MS/MS)
Format: in vivo, Human
Details: for Cmax / AUC(0-inf): po
Experimental: Human plasma samples obtained during this study were analyzed at PharmaNet USA, Inc. Princeton, New Jersey, USA. The samples were analyzed for galunisertib levels using 2 validated liquid chromatography with tandem mass spectrometry methods. For the high-range method (PharmaNet USA, Inc. SOP TM.589), the lower limit of quantification was 5.000 ng/mL and the upper limit of quantification was 1000.000 ng/mL. The intra-assay accuracy (% relative error) during validation ranged from 1.800 to 10.222 %. The intra-assay precision (% relative standard deviation) during validation ranged from 3.119 to 18.389 %. Samples above the limit of quantification were diluted to yield results within the calibrated range. Samples below the lower limit of quantification using the high-range method were reanalyzed using the low-range method. For the low-range method (PharmaNet USA, Inc. SOP TM.563), the lower limit of quantification was 0.050 ng/mL and the upper limit of quantification was 10.000 ng/mL. The intra-assay accuracy during validation ranged from −5.080 to −2.000 %. The intra-assay precision during validation ranged from 4.404 to 12.245 %.
All patients who received at least 1 dose of galunisertib and had samples collected were subjected to PK analyses. The PK parameters for galunisertib were computed by standard non-compartmental methods of analysis using Win Nonlin Professional Edition (version 5.3) on a computer that met or exceeded the minimum system requirements for this program with appropriate and validated software. The parameters reported from the non-compartmental analyses included the maximum plasma concentration (Cmax), area under the curve from zero to 24 h (AUC(0–24)), AUC from zero time to infinity (AUC(0–∞)), half-life volume of distribution (Vd) and clearance (CL).
Clinical benefit in this study has been defined as a patient with either a complete response (CR), partial response (PR), and stable disease (SD) ≥6 cycles. MAIP results from plasma samples taken at baseline were compared between patients completing >6 cycles and ≤6 cycles using ANOVA. The analysis included controlling the false discovery rate to 30 % using the Benjamini-Hochberg method. Boxplots showing the distributions at baseline of the potentially prognostic markers are provided. Observed TGF-β-stimulated pSMAD2 (pSMAD2^+) in PBMCs was normalized by TGF-β-stimulated tSMAD2 [(tSMAD2^+) ^0.6[9, 10]] prior to determining the minimum normalized pSMAD2^+ and calculating percentage inhibition post-baseline for each patient. Baseline and minimum post-baseline values for each patient together with maximum percentage inhibition are presented on a line and scatter plot for each patient in Cohort 3 and summary statistics by time point provided from a standard mixed effects regression model, fitting log normalized pSMAD2^+ to the fixed effects of log baseline normalized pSMAD2^+, nominal time point, dose and their interaction and patient as a random effect.
• Part A (Fig. 1 and Table 2): Non-compartmental PK analysis was performed on 37 of the 39 patients treated in Part A: n=3 in Cohort 1 (40 mg/day); n=4 in Cohort 2 (80 mg/day); n=15 in Cohort 3 (160 mg/day); n=6 in Cohort 4 (240 mg/day); n=9 in Cohort 5 (300 mg/day). […] The terminal half-life was approximately 8 h. At steady state, on Day 14, the median time to maximum concentration (tmax,ss) ranged from 0.5 to 2 h post dose, independent of dose. Formal assessment of time-linear kinetics was not possible, regardless of whether or not the observed exposures of AUC(0–∞) Day 1 and AUC(0–∞) Day 14 were similar. […] Both the maximum observed plasma concentration at steady state (Cmax,ss) and exposure increased with dose as indicated from the statistical analysis of the PK parameters. […] A population PK model was developed based on data in Cohorts 1 through 5 [7]. […] PK profiles of galunisertib following administration of 160 mg/day (Cohort 6) and 300 mg/day (Cohort 7) on Days 6 and 7 were similar.

[1] = Part A, 240 mg/day oral BID, day 14 steady state, Cycle 2, individual patients
[2] = Part A, 7.5-fold dose range, power model

Structure (SMILES): Cc1cccc(-c2nn3c(c2-c2ccnc4ccc(C(N)=O)cc24)CCC3)n1 [galunisertib]
- AUC0,∞ individual parameters (n <3) [1]: 2500- ^a ng*h/mL
- Cmax, ss individual parameters (n <3) [1]: 610- ^a ng/mL
- PK profile in patients on enzyme-inducing anti-epileptic medication versus other patients (Part A, 3 patients (2 in Cohort 3, 1 in Cohort 4)): do not appear to differ
- accumulation over the 14-day BID dosing regimen (Part A, 5 cohorts): no accumulation
- estimated ratio of geometric means for AUC(0-∞) between 40 and 300 mg daily [2]: 5.61
- estimated ratio of geometric means for Cmax,ss between 40 and 300 mg daily [2]: 3.99
- PK profile with co-administration of proton pump inhibitors (Part A, 14 patients on PPI, Day 14): do not appear to be altered
- fold increase of AUC(0–∞) for a doubling of dose (Part A, 40–300 mg, power model): 1.81 fold
- fold increase of Cmax,ss for a doubling of dose (Part A, 40–300 mg, power model): 1.61 fold
- duration of measurable plasma concentrations (Part A, oral, patients): at least 48 h
- effect of co-administration of lomustine on galunisertib PK profile (Part B, 160 mg/day and 300 mg/day, Days 6 and 7): did not appear to alter
- dose proportionality of PK (any doubling of dose within 40–300 mg, particularly AUC(0-∞)): dose-proportional PK
- Tmax (human, plasma, oral, Part A, steady state, Day 14, post dose, independent of dose, read-out: median time to maximum concentration (tmax,ss)): 1800 to 7200 s
- Cmax (human, plasma, 40 mg/day, Part A, 40 mg/day oral BID, day 14 steady state, Cycle 1, patients, read-out: Cmax, ss mean (% CV)): 220 ng/mL
- Cmax (human, plasma, 80 mg/day, Part A, 80 mg/day oral BID, day 14 steady state, Cycle 1, patients, read-out: Cmax, ss mean (% CV)): 350 ng/mL
- AUC(0-inf) (human, plasma, 160 mg/day, Part A, 160 mg/day oral BID, day 14 steady state, Cycle 1, patients, read-out: AUC0,∞ mean (% CV)): 2140 ng·h/mL
- Cmax (human, plasma, 160 mg/day, Part A, 160 mg/day oral BID, day 14 steady state, Cycle 1, patients, read-out: Cmax, ss mean (% CV)): 630 ng/mL
- AUC(0-inf) (human, plasma, 160 mg/day, Part A, 160 mg/day oral BID, day 14 steady state, Cycle 2, patients, read-out: AUC0,∞ mean (% CV)): 2430 ng·h/mL
- Cmax (human, plasma, 160 mg/day, Part A, 160 mg/day oral BID, day 14 steady state, Cycle 2, patients, read-out: Cmax, ss mean (% CV)): 790 ng/mL
- AUC(0-inf) (human, plasma, 240 mg/day, Part A, 240 mg/day oral BID, day 14 steady state, Cycle 1, patients, read-out: AUC0,∞ mean (% CV)): 3060 ng·h/mL
- Cmax (human, plasma, 240 mg/day, Part A, 240 mg/day oral BID, day 14 steady state, Cycle 1, patients, read-out: Cmax, ss mean (% CV)): 660 ng/mL
- AUC(0-inf) (human, plasma, 240 mg/day, Part A, 240 mg/day oral BID, day 14 steady state, Cycle 2, individual patients, read-out: AUC0,∞ individual parameters (n <3)): 2900 ng·h/mL
- Cmax (human, plasma, 240 mg/day, Part A, 240 mg/day oral BID, day 14 steady state, Cycle 2, individual patients, read-out: Cmax, ss individual parameters (n <3)): 520 ng/mL
- AUC(0-inf) (human, plasma, 300 mg/day, Part A, 300 mg/day oral BID, day 14 steady state, Cycle 1, patients, read-out: AUC0,∞ mean (% CV)): 3730 ng·h/mL
- Cmax (human, plasma, 300 mg/day, Part A, 300 mg/day oral BID, day 14 steady state, Cycle 1, patients, read-out: Cmax, ss mean (% CV)): 990 ng/mL
- AUC(0-inf) (human, plasma, 300 mg/day, Part A, 300 mg/day oral BID, day 14 steady state, Cycle 2, patients, read-out: AUC0,∞ mean (% CV)): 2930 ng·h/mL
- Cmax (human, plasma, 300 mg/day, Part A, 300 mg/day oral BID, day 14 steady state, Cycle 2, patients, read-out: Cmax, ss mean (% CV)): 800 ng/mL
- half-life (human, plasma, Part A, oral, patients, read-out: terminal half-life (converted)): ~8 h
- between-patient coefficient of variation for AUC(0-∞) at steady state (pooled across the 5 cohorts): 42%
- between-patient coefficient of variation for Cmax,ss (pooled across the 5 cohorts): 55%
- within-patient coefficient of variation for AUC(0-∞) at steady state (pooled across the 5 cohorts): 29%
- within-patient coefficient of variation for Cmax,ss (pooled across the 5 cohorts): 31%
